{"source": "patent US20230158102A1", "about": "(priority 2020, published 2023)", "key": {"[1]": {"system": "HIV-1 (recombinant virus NL4.3 Luc)", "assay": "microbe, parasite or virus in culture", "assay_type": "cell-based"}, "[2]": {"system": "HIV-1 (recombinant virus NL4.3 Luc)", "assay": "microbe, parasite or virus in culture", "assay_type": "cell-based", "conditions": "for IC50: Human immunodeficiency virus 1, PBMC"}, "[3]": {"system": "MT-2 cells"}, "[4]": {"assay": "in vitro", "conditions": "human"}, "[5]": {"system": "SARS-CoV-2 (COVID-19)", "assay": "Study APLICOV-PC (NCT04382066): efficacy in patients hospitalised for COVID-19", "assay_type": "in vivo, human"}, "[6]": {"system": "C-reactive protein", "assay": "C-reactive protein tests in COVID-19 patients treated with PLD", "assay_type": "in vivo, human", "procedure": "The effect of PLD on inflammatory cytokines was also measured for patients 5, 7 and 9 and the results of C-reactive protein tests are shown in FIG. 36."}, "[7]": {"system": "HCoV-229E", "assay_type": "cell-based"}, "[8]": {"system": "Huh-7 cells"}, "[9]": {"conditions": "interim results, 8 evaluable patients"}, "[10]": {"conditions": "Huh-7, 50 nM, 5 nM and 0.5 nM, 24 hpi"}}, "note": "“Also recorded” adds a separate entry of the source. Like-named read-outs stand apart in the source and are kept apart here. Numbered stars: 1 amine (or outer) side, 2 acyl side, 3 side chain; on linkers, the order of the positions; unused ones are H or OH. Bridge positions count the residues as written; N and C are the ends. Square brackets hold non-standard residues; d marks the D form. Peptide text beside a SMILES is read from it. * marks the point of attachment. Benzothiophen(2-yl)carbonyl = O=C(c1cc2ccccc2s1)*; X2 = CC[C@H](C)[C@@H](N[*:1])[C@@H](O)CC(=O)[*:2]; NMeY = CN[C@@H](Cc1ccc(O)cc1)C(=O)O; dNMeL = CN[C@H](CC(C)C)C(=O)O; Tos = Cc1ccc(S(=O)(=O)*)cc1; Hiv = CC(C)[C@H](O)C(=O)O; Aib = CC(C)(N)C(=O)O"}
{"compound": "CC[C@H](C)[C@H]1NC(=O)[C@@H](NC(=O)[C@@H](CC(C)C)NC)[C@@H](C)OC(=O)[C@H](Cc2ccc(OC)cc2)N(C)C(=O)[C@@H]2CCCN2C(=O)[C@H](CC(C)C)NC(=O)C(C)(C)NC(=O)C[C@@H]1O", "note": "[Compound 3] (H-[dNMeL]T[X2][Aib]LP[NMeY](Me); ester 2-C)", "values": [{"measurement": "IC50", "setting": "[1]; Human immunodeficiency virus 1, MT2, read-out: IC50 (antiviral activity), MT-2 cells infected with NL4.3 Luc, 48 hours", "value": 1390, "unit": "nM"}, {"measurement": "IC50", "setting": "[2]; read-out: IC50 (antiviral activity), preactivated PBMCs infected with NL4.3 Luc, 48 hours", "value": 160, "unit": "nM"}, {"measurement": "Toxic concentrations not reached at", "setting": "[3]", "value": "> 57.3", "unit": "µM"}, {"measurement": "CC50", "setting": "[4]", "value": "~27000", "unit": "nM"}]}
{"compound": "CC[C@H](C)[C@H]1NC(=O)[C@@H](NC(=O)C(CC(C)C)N(C)C(=O)[C@@H]2CCCN2C(=O)C(C)=O)[C@@H](C)OC(=O)[C@H](Cc2ccc(OC)cc2)N(C)C(=O)[C@@H]2CCCN2C(=O)[C@H](CC(C)C)NC(=O)[C@@H](C)C(=O)[C@H](C(C)C)OC(=O)C[C@@H]1O", "note": "(stereo in doubt) [PLD, (−)-(3S,6R,7S,10R,11S,15S,17S,20S,25aS)-11-hydroxy-3-(4-methoxybenzyl)-2,6,17-trimethyl-15-(1-methylethyl)-7-[[(2R)-4-methyl-2-[methyl[[(2S)-1-(2-oxopropanoyl)pyrrolidin-2-yl]carbonyl]amino]pentanoyl]amino]-10-[(1S)-1-methylpropyl]-20-(2-methylpropyl)tetradecahydro-15H-pyrrolo[2,1-f]-[1,15,4,7,10,20]dioxatetrazacyclotricosine-1,4,8,13,16,18,21(17H)-heptone]", "values": [{"measurement": "Clinical course (single patient)", "setting": "[5]; PLD 1.5 mg×3, interim results", "value": "Acute clinical improvement; also recorded: lack of improvement; also recorded: prevented clinical deterioration; also recorded: Major clinical improvement"}, {"measurement": "Clinical course (single patient)", "setting": "[5]; PLD 2.0 mg×3, interim results", "value": "major clinical improvement"}, {"measurement": "PCR COVID 19 test at day 7 (single patient)", "setting": "[5]; PLD 2.0 mg×3, interim results", "value": "still positive"}, {"measurement": "Removal of viral burden", "setting": "[5]; ad hoc analysis of the first cohort at 1.5 mg and 2 mg", "value": "complete removal of viral burden was noted in the vast majority of patients"}, {"measurement": "Evaluable patients requiring post PLD specific anti COVID 19 therapy", "setting": "[5]; [9]", "value": "2 out of 8"}, {"measurement": "Evaluable patients with SARS-CoV-2 PCR conversion to negative", "setting": "[5]; [9]", "value": "6 out of 8"}, {"measurement": "Evaluable patients with disease control and major clinical improvements", "setting": "[5]; [9]", "value": "6 out of 8"}, {"measurement": "Deaths on study", "setting": "[5]; interim results, 9 patients", "value": "no deaths on study"}, {"measurement": "Need for mechanical ventilation or ICU admission", "setting": "[5]; interim results, 9 patients", "value": "none of the patients required mechanical ventilation or ICU admission"}, {"measurement": "Acute fall of C-reactive protein seen by day", "setting": "[6]; patient 5 (PLD 1.5 mg×3)", "value": "≤ 2", "unit": "days"}, {"measurement": "Acute fall of C-reactive protein seen by day", "setting": "[6]; patients 7 and 9 (PLD 2.0 mg×3)", "value": "≤ 3", "unit": "days"}, {"measurement": "Antiviral activity (fluorescence images)", "setting": "[7]", "value": "remarkable antiviral properties are seen across all concentrations"}, {"measurement": "Cell growth / viability (fluorescence images)", "setting": "[8]; [10]", "value": "cells remain viable at all concentrations"}]}
{"compound": "CC[C@H](C)[C@H]1NC(=O)[C@@H](NC(=O)[C@@H](CC(C)C)N(C)C(=O)c2cc3ccccc3s2)[C@@H](C)OC(=O)[C@H](Cc2ccc(OC)cc2)N(C)C(=O)[C@@H]2CCCN2C(=O)[C@H](CC(C)C)NC(=O)[C@H](C(C)C)OC(=O)C[C@@H]1O", "note": "[Compound 10] ({Benzothiophen(2-yl)carbonyl}-[dNMeL]T[X2][Hiv]LP[NMeY](Me); ester 2-C)", "values": [{"measurement": "IC50", "setting": "[2]", "value": 0.86, "unit": "nM"}, {"measurement": "Antiviral activity (fluorescence images)", "setting": "[7]", "value": "remarkable antiviral properties are seen across all concentrations"}, {"measurement": "Cell growth / viability (fluorescence images)", "setting": "[8]; [10]", "value": "cells remain viable at all concentrations"}]}
{"compound": "CC[C@H](C)[C@H]1NC(=O)[C@@H](NC(=O)[C@@H](CC(C)C)N(C)C(=O)[C@@H]2CCCN2C(=O)[C@H](C)NC(=O)[C@@H](Cc2ccccc2)NC(=O)OC(C)(C)C)[C@@H](C)OC(=O)[C@H](Cc2ccc(OC)cc2)N(C)C(=O)[C@@H]2CCCN2C(=O)[C@H](CC(C)C)NC(=O)[C@@H](C)C(=O)[C@H](C(C)C)OC(=O)C[C@@H]1O", "note": "[Compound 9]", "values": [{"measurement": "IC50", "setting": "[2]; PBMCs, read-out: IC50", "value": 0.63, "unit": "nM"}, {"measurement": "Antiviral activity (fluorescence images)", "setting": "[7]", "value": "remarkable antiviral properties are seen across all concentrations"}, {"measurement": "Cell growth / viability (fluorescence images)", "setting": "[8]", "value": "cells remain viable at all concentrations"}]}
{"compound": "CC[C@H](C)[C@H]1NC(=O)[C@@H](NC(=O)[C@H](CC(C)C)N(C)C(=O)[C@@H]2CCCN2C(=O)C(C)=O)[C@@H](C)OC(=O)[C@H](Cc2ccc(OC)cc2)N(C)C(=O)[C@@H]2CCCN2C(=O)[C@H](CC(C)C)NC(=O)[C@@H](C)C(=O)[C@H](C(C)C)OC(=O)C[C@@H]1O", "note": "[Compound 8]", "values": [{"measurement": "Antiviral activity", "setting": "[1]; MT-2 cells", "value": "showed also antiviral activity"}, {"measurement": "IC50 value, fold lower than the specific concentration of 10 μM", "setting": "[1]; MT-2 cells and PBMCs, not told apart", "value": 100, "unit": "fold"}, {"measurement": "Specificity of antiviral activity", "setting": "[1]; at 10 μM, MT-2 cells and PBMCs, not told apart", "value": "specific"}, {"measurement": "Specificity of antiviral activity", "setting": "[1]; at 50 μM, MT-2 cells and PBMCs, not told apart", "value": "non-specific"}, {"measurement": "Antiviral activity", "setting": "[2]; PBMCs", "value": "showed also antiviral activity"}]}
{"compound": "CC[C@H](C)[C@H]1NC(=O)[C@@H](NC(=O)[C@@H](CC(C)C)N(C)S(=O)(=O)c2ccc(C)cc2)[C@@H](C)OC(=O)[C@H](Cc2ccc(OC)cc2)N(C)C(=O)[C@@H]2CCCN2C(=O)[C@H](CC(C)C)NC(=O)[C@H](C(C)C)OC(=O)C[C@@H]1O", "note": "[Compound 11] (Tos-[dNMeL]T[X2][Hiv]LP[NMeY](Me); ester 2-C)", "values": [{"measurement": "IC50", "setting": "[2]", "value": 69.4, "unit": "nM"}]}
